Test results reported in article PMC8373216, “Development and Preclinical Evaluation of New Inhaled Lipoglycopeptides for the Treatment of Persistent Pulmonary Methicillin-Resistant Staphylococcus aureus Infections” (Antimicrobial Agents and Chemotherapy, 2021).
Converted amounts (≈) assume the structure as drawn. Like-named read-outs stand apart in the source and are kept apart here.

What was measured:
Streptococcus oralis = assay: Expanded panel broth microdilution MIC; format: cell-based
[1] = system: MRSA (ATCC BAA 1556; USA300); assay: Acute pulmonary MRSA infection in neutropenic rats, nebulized nose-only inhalation; format: in vivo, Staphylococcus aureus; settings: inhaled at 24 and 32 h postinfection, lungs at 48 h, RV40 14.4 mg/kg, RV94 18.8 mg/kg delivered
Experimental: Rats were rendered neutropenic with intraperitoneal (i.p.) cyclophosphamide on day −4 (150 mg/kg) and day −1 (100 mg/kg) relative to the challenge. On day 0 at 0 h, rats were challenged with MRSA via intranasal instillation at a target titer of 8.0 to 8.3 log10 CFU. At 24 and 32 h postchallenge, rats were loaded into a 12-port inhalation dosing tower, where they received nebulized drug or vehicle control treatments by nose-only inhalation. Animals were euthanized at 48 h postinfection for enumeration of lung MRSA titer. MRSA lung titer of test article treatments versus control is plotted for three separate experiments. […] Statistics are based on the Kolmogorov-Smirnov test for drug treatment versus control (RV94, P = 0.01). LOD = 2.1 log10 CFU/lungset.
Male Sprague Dawley rats (Envigo, Indianapolis, IN) weighing between 225 and 250 g were used in these studies. Rats were housed and acclimated to the study facility as described in the PK methods section. Rats were rendered neutropenic through a series of intraperitoneal cyclophosphamide (Sigma-Aldrich) injections on day −4 (150 mg/kg) and day −1 (100 mg/kg) relative to the challenge. On day 0 at 0 h, rats were challenged with MRSA ATCC BAA 1556 via intranasal instillation at a target titer of 8.0 to 8.3 log10 CFU using optical density and back-counting inoculum CFU. To prepare the inoculum, a frozen aliquot of the organism stored at −80°C was thawed, transferred into TSB, and incubated at 37°C while shaking for 16 h. Cultures were then centrifuged at 2,000 × g for 5 min, and the resulting pellet was resuspended in PBS and equilibrated. For the challenge procedure, rats were first anesthetized through use of 2 to 5% isoflurane in 100% oxygen, then restrained with a scruff grip and a total of 200 μl of inoculum was quickly introduced to one nare. The rat was held in a vertical position until the challenge was fully inhaled. Rats were monitored following challenge to ensure that normal respiration was achieved and then returned to their cage. […] At necropsy, whole lungs were aseptically removed and lung weights were recorded. […]

Clostridioides difficile = assay: Expanded panel broth microdilution MIC; format: cell-based
[2] = system: Peptostreptococcus anaerobius; assay: Expanded panel broth microdilution MIC; format: cell-based
[3] = system: MRSA ATCC BAA 1556 (USA300) biofilm; assay: Static MRSA biofilm killing, plastic microtiter plate, MEM
Streptococcus agalactiae = assay: Expanded panel broth microdilution MIC/MBC; format: cell-based; settings: for MIC: Streptococcus agalactiae
Enterococcus faecium = assay: Expanded panel broth microdilution MIC/MBC; format: cell-based; settings: for MIC: Enterococcus faecium, read-out: MIC
[4] = system: Staphylococcus lugdunensis; assay: Expanded panel broth microdilution MIC; format: cell-based
[5] = system: MRSA ATCC BAA 1556 (USA300); assay: In-house broth microdilution MIC screening; format: cell-based, Staphylococcus aureus
[6] = system: Streptococcus constellatus; assay: Expanded panel broth microdilution MIC; format: cell-based
[7] = Single-dose nebulized nose-only inhalation PK in healthy rats; format: in vivo, rat; settings: male, Sprague Dawley, rat, in vivo
Experimental: Rats were acclimated in the study facility for approximately 1 week prior to study start. Ten or eleven rats per cohort were loaded into the chamber at the time of dosing. […] An additional airflow set to 6 liters/min was admixed with the nebulizer output to further direct the test articles to the animals. […] The remaining port on the chamber was fit with an aerosol sampling filter for dose determination over a 5 min sampling period. The average dose delivered to the nose of each animal was calculated using an algorithm that was previously described ([49]). […] Animals were euthanized for collection of whole lungs and plasma at time points ranging from immediate postdose (IPD; approximately 30 min after dosing for nebulization) to 168 h postdose (7 days). Drugs were extracted from tissues using customized protein precipitation methods with an appropriate internal standard for each compound and transferred for analysis by LC-MS/MS (Sciex API4500 or API6500+ mass spectrometer [Sciex, Framingham, MA]). GraphPad Prism (La Jolla, CA) was used for statistical analyses and data plotting. […] The data were applied to a noncompartmental analysis after extravascular dosing input and fit to a linear up/log down model. Statistical analysis of in vitro intracellular and biofilm activity was based on a two-way ANOVA with a Bonferroni post test. In vivo statistical analysis was based on the Kolmogorov-Smirnov test.

[8] = system: Staphylococcus haemolyticus; assay: Expanded panel broth microdilution MIC; format: cell-based
Clostridium. perfringens = assay: microbe, parasite or virus in culture; format: cell-based
[9] = MRSA and MSSA isolates of Table 1

SMILES: CCCCCCCCCCNC(=O)CNC1(C)CC(OC2C(Oc3c4cc5cc3Oc3ccc(cc3Cl)C(O)C3NC(=O)C(NC(=O)C5NC(=O)C(CC(N)=O)NC(=O)C(NC(=O)C(CC(C)C)NC)C(O)c5ccc(c(Cl)c5)O4)c4ccc(O)c(c4)-c4c(O)cc(O)cc4C(C(=O)O)NC3=O)OC(CO)C(O)C2O)OC(C)C1O (stereo not shown) [RV94]
- MIC (Streptococcus oralis; S. oralis MGS, 1 isolate): 0.015 µg/mL (≈ 9.11 nM)
- MIC (Streptococcus oralis; Streptococcus oralis, S. oralis (MGS) MMX 5821, read-out: MIC): 0.015 µg/mL (≈ 9.11 nM)
- Average reduction in lung MRSA titer versus vehicle control [1]: 1.0 log10 CFU
- MIC (Clostridioides difficile; ATCCBAA1805, C. difficile ATCC BAA-1805, ribo 027, read-out: MIC): 0.015 µg/mL (≈ 9.11 nM)
- MIC (Clostridioides difficile; ATCCBAA1870, C. difficile ATCC BAA-1870, NAP1;ribo 027, read-out: MIC): 0.06 µg/mL (≈ 36.4 nM)
- MIC (Clostridioides difficile; C. difficile ATTC 700057, toxAB-, read-out: MIC): 0.015 µg/mL (≈ 9.11 nM)
- MIC (Clostridioides difficile; C. difficile NAP1;ribo 027, 1 isolate, read-out: MIC): 0.06 µg/mL (≈ 36.4 nM)
- MIC (Clostridioides difficile; C. difficile ribo 027, 1 isolate, read-out: MIC): 0.015 µg/mL (≈ 9.11 nM)
- MIC (Clostridioides difficile; C. difficile toxAB-, 1 isolate, read-out: MIC): 0.015 µg/mL (≈ 9.11 nM)
- MIC ([2]; ATCC27337, P. anaerobius ATCC 27337, read-out: MIC): 0.008 µg/mL (≈ 4.86 nM)
- MIC ([2]; P. anaerobius, 1 isolate, read-out: MIC): 0.008 µg/mL (≈ 4.86 nM)
- Reduction in MRSA biofilm titer versus control ([3]; 2.5 μg/ml): 1 log10 CFU/ml
- Reduction in MRSA biofilm titer versus control ([3]; doses 1 to 10 μg/ml): approximately 2 log10 CFU/ml
- Concentrations with statistically significant reduction versus control biofilm ([3]; two-way ANOVA, Bonferroni): no statistical significance
- MIC:MBC (Streptococcus agalactiae; S. agalactiae, MBC on one organism): 4
- MIC (Streptococcus agalactiae; ATCC13813, S. agalactiae ATCC 13813, read-out: MIC): 0.03 µg/mL (≈ 18.2 nM)
- MIC (Streptococcus agalactiae; S. agalactiae MMX 4088, read-out: MIC): 0.008 µg/mL (≈ 4.86 nM)
- MIC (Streptococcus agalactiae; S. agalactiae MMX 4115, ermR, read-out: MIC): 0.004 µg/mL (≈ 2.43 nM)
- MIC (Streptococcus agalactiae; S. agalactiae ermR, 1 isolate, read-out: MIC): 0.004 µg/mL (≈ 2.43 nM)
- MIC (Streptococcus agalactiae; S. agalactiae, 2 isolates, read-out: MIC (median)): 0.02 µg/mL (≈ 12.1 nM)
- MIC:MBC (Enterococcus faecium; E. faecium VanA VRE): >8
- MIC:MBC (Enterococcus faecium; E. faecium VanB VRE): >8
- MIC (Enterococcus faecium; E. faecium MMX 4204, VSE): 0.015 µg/mL (≈ 9.11 nM)
- MIC (Enterococcus faecium; E. faecium VSE, 1 isolate): 0.015 µg/mL (≈ 9.11 nM)
- MIC (Enterococcus faecium; VRE, E. faecium MMX 173, VanB VRE): 0.03 µg/mL (≈ 18.2 nM)
- MIC (Enterococcus faecium; VRE, E. faecium MMX 851, VanA VRE): 2 µg/mL (≈ 1210 nM)
- MIC (Enterococcus faecium; VRE, E. faecium VanA VRE, 1 isolate): 2 µg/mL (≈ 1210 nM)
- MIC (Enterococcus faecium; VRE, E. faecium VanB VRE, 1 isolate): 0.03 µg/mL (≈ 18.2 nM)
- MIC ([4]; S. lugdunensis, 1 isolate): 0.015 µg/mL (≈ 9.11 nM)
- MIC ([4]; Staphylococcus lugdunensis, S. lugdunensis MMX 8724, read-out: MIC): 0.015 µg/mL (≈ 9.11 nM)
- MIC potency, fold less potent than RV40 [5, 9]: ~2 fold
- MIC potency, fold more potent than telavancin [5, 9]: ~2 fold
- MIC potency, fold more potent than vancomycin [5, 9]: approximately 30 fold
- MIC ([5]; Staphylococcus aureus, broth microdilution, read-out: MIC Value, MRSA ATCC BAA 1556): 0.031 µg/mL (≈ 18.8 nM)
- MIC ([6]; S. constellatus AGS, 1 isolate): 0.008 µg/mL (≈ 4.86 nM)
- MIC ([6]; Streptococcus constellatus, S. constellatus (AGS) MMX 5677, read-out: MIC): 0.008 µg/mL (≈ 4.86 nM)
- Pulmonary dose [7]: 1.10 mg/kg
- Drug lung level at 120 h ([7]; 120 h): 45%
- Primary hydrolysis byproduct lung level at 120 h ([7]; 120 h): 0.1%
- Kp ([7]; inhaled or intranasal): 1870
- Lung AUC0-∞ ([7]; inhaled or intranasal): 40671 µg·h/g
- Lung Cmax ([7]; inhaled or intranasal): 262 µg/g
- Lung t1/2 ([7]; inhaled or intranasal): 108 h
- Plasma Cmax ([7]; inhaled or intranasal): 140 ng/mL
- Hydrolysis product RV101 relative to parent concentration at lung Cmax ([7]; inhaled or intranasal, 120 h): 0.1%
- MIC ([8]; ATCC29970, S. haemolyticus ATCC 29970, read-out: MIC): 0.06 µg/mL (≈ 36.4 nM)
- MIC ([8]; S. haemolyticus, 1 isolate, read-out: MIC): 0.06 µg/mL (≈ 36.4 nM)
- MIC (Clostridium. perfringens): 0.008 µg/mL (≈ 4.86 nM)
- MIC (Clostridium. perfringens; ATCC13124): 0.008 µg/mL (≈ 4.86 nM)
